According to the NIST ThermoML archive (doi:10.1016/j.jct.2013.11.027):

Legend:
[1] = xn = mol fraction of the nth substance listed; details: 101 kPa, Liquid; for speed of sound: Sing-around technique in a fixed-path interferometer; for mass density: Vibrating tube method
[2] = refractive index (Na D-line) (dimensionless); xn = mol fraction of the nth substance listed; details: 101 kPa, Liquid, Standard Abbe refractometry

CCCCCCCC[n+]1ccn(C)c1.F[B-](F)(F)F [1-methyl-3-octylimidazolium tetrafluoroborate] + C1COCCO1
Details	mass density, 298.15 K [kg/m3]	mass density, 308.15 K [kg/m3]	mass density, 318.15 K [kg/m3]	refractive index, 298.15 K	refractive index, 308.15 K	refractive index, 318.15 K	speed of sound, 298.15 K [m/s]	speed of sound, 308.15 K [m/s]	speed of sound, 318.15 K [m/s]
[1], x1 = 0.0859	1049.95	1040.08	1030.18	–	–	–	1380.8	1341.1	1301.8
[1], x1 = 0.192	1064.93	1055.92	1047.49	–	–	–	1414.2	1378.1	1343.1
[1], x1 = 0.2914	1074.44	1066.14	1057.87	–	–	–	1436.8	1403.6	1370.9
[1], x1 = 0.3963	1080.96	1073.08	1065.23	–	–	–	1451.6	1420.6	1390
[1], x1 = 0.4955	1085.46	1077.85	1070.11	–	–	–	1460.4	1430.9	1401.8
[1], x1 = 0.5947	1088.93	1081.57	1074.25	–	–	–	1466.5	1438	1410.1
[1], x1 = 0.69	1091.4	1084.18	1076.98	–	–	–	1469	1440.8	1414.8
[1], x1 = 0.7938	1093.66	1086.61	1079.53	–	–	–	1475.1	1447.9	1421.7
[1], x1 = 0.8893	1095.2	1088.29	1081.42	–	–	–	1477.8	1450.9	1425.1
[1], x1 = 1	1097.61	1090.9	1084.17	–	–	–	1481.1	1453.9	1428.2
[2], x1 = 0.0859	–	–	–	1.42308	1.41854	1.41465	–	–	–
[2], x1 = 0.192	–	–	–	1.42601	1.42173	1.41833	–	–	–
[2], x1 = 0.2914	–	–	–	1.42812	1.42412	1.42107	–	–	–
[2], x1 = 0.3963	–	–	–	1.42935	1.42549	1.42264	–	–	–
[2], x1 = 0.4955	–	–	–	1.43039	1.42664	1.42387	–	–	–
[2], x1 = 0.5947	–	–	–	1.43124	1.42746	1.42483	–	–	–
[2], x1 = 0.69	–	–	–	1.43181	1.42809	1.42548	–	–	–
[2], x1 = 0.7938	–	–	–	1.43221	1.42865	1.42605	–	–	–
[2], x1 = 0.8893	–	–	–	1.43262	1.42907	1.42628	–	–	–
[2], x1 = 1	–	–	–	1.43296	1.42939	1.42684	–	–	–

CCCCCCCC[n+]1ccn(C)c1.F[B-](F)(F)F [1-methyl-3-octylimidazolium tetrafluoroborate] + C1CCOC1
Details	mass density, 298.15 K [kg/m3]	mass density, 308.15 K [kg/m3]	mass density, 318.15 K [kg/m3]	refractive index, 298.15 K	refractive index, 308.15 K	refractive index, 318.15 K	speed of sound, 298.15 K [m/s]	speed of sound, 308.15 K [m/s]	speed of sound, 318.15 K [m/s]
[1], x1 = 0.0963	944.168	934.385	924.531	–	–	–	1310.8	1268.5	1226.8
[1], x1 = 0.2018	987.574	978.487	969.198	–	–	–	1351.2	1313.4	1276.2
[1], x1 = 0.312	1018.46	1010.19	1001.93	–	–	–	1384.9	1350.7	1317.1
[1], x1 = 0.4027	1037.11	1029.2	1021.32	–	–	–	1406.3	1374.4	1343
[1], x1 = 0.4917	1051.3	1043.65	1035.82	–	–	–	1422.9	1392.6	1362.8
[1], x1 = 0.6241	1067.66	1060.32	1053.02	–	–	–	1442.5	1413.9	1385.9
[1], x1 = 0.6862	1073.96	1066.73	1059.49	–	–	–	1450.2	1422.2	1394.9
[1], x1 = 0.7615	1080.76	1073.65	1066.46	–	–	–	1458.6	1431.1	1404.5
[1], x1 = 0.8612	1088.58	1081.55	1074.56	–	–	–	1470.2	1444.2	1416.3
[1], x1 = 1	1097.61	1090.9	1084.17	–	–	–	1481.1	1453.9	1428.2
[2], x1 = 0.0963	–	–	–	1.41425	1.40956	1.40529	–	–	–
[2], x1 = 0.2018	–	–	–	1.42039	1.4162	1.41236	–	–	–
[2], x1 = 0.312	–	–	–	1.42432	1.42045	1.41715	–	–	–
[2], x1 = 0.4027	–	–	–	1.42658	1.4228	1.41965	–	–	–
[2], x1 = 0.4917	–	–	–	1.42817	1.42451	1.42147	–	–	–
[2], x1 = 0.6241	–	–	–	1.42996	1.42631	1.42348	–	–	–
[2], x1 = 0.6862	–	–	–	1.43062	1.42695	1.42415	–	–	–
[2], x1 = 0.7615	–	–	–	1.43129	1.4277	1.42493	–	–	–
[2], x1 = 0.8612	–	–	–	1.43207	1.42846	1.4258	–	–	–
[2], x1 = 1	–	–	–	1.43296	1.42939	1.42684	–	–	–
